Columns and labels:
Format in all cases: in vivo
[1] = test system: Alopecurus myosuroides (ALOMY); assay: Example A post-emergence herbicidal glasshouse test; settings: 312 h, evaluated after 13 days, 100=total damage to plant, 0=no damage
How it was run: (§1)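 Pot-grown plants sprayed one day after sowing (pre-emergence) or after 8 days (post-emergence) with compound in acetone/water 50:50 containing 0.5% Tween 20. Glasshouse at 24/16 °C day/night, 14 h light, 65% humidity; damage scored after 13 days, 0 = none to 100 = total.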

[2] = test system: Amaranthus retroflexus (AMARE); assay: as above; settings: 312 h, evaluated after 13 days, 100=total damage to plant, 0=no damage
How it was run: as §1

Solanum nigrum (SOLNI) [3] = assay: as above; settings: 250 g/ha, evaluated after 13 days, 100=total damage to plant, 0=no damage
How it was run: as §1

Setaria faberi (SETFA) [4] = assay: as above; settings: 312 h, evaluated after 13 days, 100=total damage to plant, 0=no damage
How it was run: as §1

Avena fatua (AVEFA) [5] = assay: as above; settings: 312 h, evaluated after 13 days, 100=total damage to plant, 0=no damage
How it was run: as §1

[6] = test system: Echinochloa crus-galli (ECHCG); assay: as above; settings: 312 h, evaluated after 13 days, 100=total damage to plant, 0=no damage
How it was run: as §1

[7] = test system: Alopecurus myosuroides (ALOMY); assay: Example A pre-emergence herbicidal glasshouse test; settings: 312 h, Rate 250 g/ha, evaluated after 13 days, 100=total damage to plant, 0=no damage to plant
How it was run: as §1

[8] = test system: Amaranthus retroflexus (AMARE); assay: Example A pre-emergence herbicidal glasshouse test; settings: 312 h, Rate 250 g/ha, evaluated after 13 days, 100=total damage to plant, 0=no damage to plant
How it was run: as §1

Solanum nigrum (SOLNI) [9] = assay: Example A pre-emergence herbicidal glasshouse test; settings: Rate 250 g/ha, evaluated after 13 days, 100=total damage to plant, 0=no damage to plant
How it was run: as §1

Setaria faberi (SETFA) [10] = assay: Example A pre-emergence herbicidal glasshouse test; settings: 312 h, Rate 250 g/ha, evaluated after 13 days, 100=total damage to plant, 0=no damage to plant
How it was run: as §1

Avena fatua (AVEFA) [11] = assay: Example A pre-emergence herbicidal glasshouse test; settings: 312 h, Rate 250 g/ha, evaluated after 13 days, 100=total damage to plant, 0=no damage to plant
How it was run: as §1

[12] = test system: Echinochloa crus-galli (ECHCG); assay: Example A pre-emergence herbicidal glasshouse test; settings: 312 h, Rate 250 g/ha, evaluated after 13 days, 100=total damage to plant, 0=no damage to plant
How it was run: as §1

[13] = test system: Alopecurus myosuroides (ALOMY); assay: Example B post-emergence herbicidal greenhouse test; settings: 360 h, evaluated after 15 days, 100=total damage to plant, 0=no damage
How it was run: (§2)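 Read-out is visual plant damage (100 = total, 0 = none) assessed 20 days (pre-emergence) or 15 days (post-emergence) after spraying. Seeds in pots had been cultivated 1 day or 10 days respectively under controlled glasshouse conditions before application of an aqueous formulated spray.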

Lolium perenne (LOLPE) [14] = assay: as above; settings: 360 h, evaluated after 15 days, 100=total damage to plant, 0=no damage
How it was run: as §2

Setaria faberi (SETFA) [15] = assay: as above; settings: 360 h, evaluated after 15 days, 100=total damage to plant, 0=no damage
How it was run: as §2

[16] = test system: Digitaria sanguinalis (DIGSA); assay: as above; settings: 360 h, evaluated after 15 days, 100=total damage to plant, 0=no damage
How it was run: as §2

Avena fatua (AVEFA) [17] = assay: as above; settings: 360 h, evaluated after 15 days, 100=total damage to plant, 0=no damage
How it was run: as §2

[18] = test system: Echinochloa crus-galli (ECHCG); assay: as above; settings: 360 h, evaluated after 15 days, 100=total damage to plant, 0=no damage
How it was run: as §2

[19] = test system: Alopecurus myosuroides (ALOMY); assay: Example B pre-emergence herbicidal greenhouse test; settings: 480 h, evaluated after 20 days, 100=total damage to plant, 0=no damage
How it was run: as §2

Lolium perenne (LOLPE) [20] = assay: Example B pre-emergence herbicidal greenhouse test; settings: 480 h, evaluated after 20 days, 100=total damage to plant, 0=no damage
How it was run: as §2

Setaria faberi (SETFA) [21] = assay: Example B pre-emergence herbicidal greenhouse test; settings: 480 h, evaluated after 20 days, 100=total damage to plant, 0=no damage
How it was run: as §2

[22] = test system: Digitaria sanguinalis (DIGSA); assay: Example B pre-emergence herbicidal greenhouse test; settings: 480 h, evaluated after 20 days, 100=total damage to plant, 0=no damage
How it was run: as §2

Avena fatua (AVEFA) [23] = assay: Example B pre-emergence herbicidal greenhouse test; settings: 480 h, evaluated after 20 days, 100=total damage to plant, 0=no damage
How it was run: as §2

[24] = test system: Echinochloa crus-galli (ECHCG); assay: Example B pre-emergence herbicidal greenhouse test; settings: 480 h, evaluated after 20 days, 100=total damage to plant, 0=no damage
How it was run: as §2

| Structure (SMILES) | pest or weed control at 250 g/ha [1] [%] | pest or weed control at 250 g/ha [2] [%] | pest or weed control at 250 g/ha (Setaria faberi (SETFA) [4]) [%] | pest or weed control at 250 g/ha (Avena fatua (AVEFA) [5]) [%] | pest or weed control at 250 g/ha [6] [%] | pest or weed control at 250 g/ha [7] [%] | pest or weed control at 250 g/ha [8] [%] | pest or weed control at 250 g/ha (Setaria faberi (SETFA) [10]) [%] | pest or weed control at 250 g/ha (Avena fatua (AVEFA) [11]) [%] | pest or weed control at 250 g/ha [12] [%] | pest or weed control at 125 g/ha [13] [%] | pest or weed control at 125 g/ha (Lolium perenne (LOLPE) [14]) [%] | pest or weed control at 125 g/ha (Setaria faberi (SETFA) [15]) [%] | pest or weed control at 125 g/ha [16] [%] | pest or weed control at 125 g/ha (Avena fatua (AVEFA) [17]) [%] | pest or weed control at 125 g/ha [18] [%] | pest or weed control at 250 g/ha [19] [%] | pest or weed control at 250 g/ha (Lolium perenne (LOLPE) [20]) [%] | pest or weed control at 250 g/ha (Setaria faberi (SETFA) [21]) [%] | pest or weed control at 250 g/ha [22] [%] | further results |
| --- | --- | --- | --- | --- | --- | --- | --- | --- | --- | --- | --- | --- | --- | --- | --- | --- | --- | --- | --- | --- | --- |
| Cc1ccc(-c2cccc(F)c2)cc1C1=C(O)[C@H]2CC[C@H](C2)C1=O (single isomer, unassigned) [Compound T13] | 0 | 0 | 0 | 0 | 10 | 0 | 0 | 0 | 0 | 0 |  |  |  |  |  |  |  |  |  |  | SOLNI damage to plant (Solanum nigrum (SOLNI) [3]): 0; SOLNI damage to plant (Solanum nigrum (SOLNI) [9]): 0 |
| CCc1ccc(-c2ccc(C)c(C3=C(O)[C@H]4CC[C@H](C4)C3=O)c2)cc1 (single isomer, unassigned) [Compound T14] | 0 | 0 | 70 | 0 | 30 | 0 | 0 | 0 | 0 | 0 |  |  |  |  |  |  |  |  |  |  | SOLNI damage to plant (Solanum nigrum (SOLNI) [3]): 0; SOLNI damage to plant (Solanum nigrum (SOLNI) [9]): 0 |
| Cc1cc(C)c(-c2ccc(C)c(C3=C(O)[C@H]4CC[C@H](C4)C3=O)c2)c(C)c1 (single isomer, unassigned) [Compound T15] |  | 0 | 0 |  |  | 0 | 0 | 0 | 0 |  |  |  |  |  |  |  |  |  |  |  | SOLNI damage to plant (Solanum nigrum (SOLNI) [3]): 0 |
| CCc1ccc(-c2ccc(Cl)cc2Cl)cc1C1=C(O)[C@H]2CC[C@H](C2)C1=O [Compound T44, 3-(2′,4′-dichloro-4-ethylbiphen-3-yl)bicyclo[3.2.1]octane-2,4-dione] | 90 | 0 | 100 | 90 | 100 | 50 | 0 | 100 | 20 | 90 | 60 | 30 | 100 | 100 | 90 | 100 | 0 | 10 | 70 | 80 | pest or weed control at 250 g/ha (Avena fatua (AVEFA) [23]): 10%; pest or weed control at 250 g/ha [24]: 50% |
| CCc1ccc(-c2ccc(Cl)cc2)cc1C1=C(O)[C@H]2CC[C@H](CC2)C1=O [Compound T54, 3-(4′-chloro-4-ethylbiphen-3-yl)bicyclo[3.2.2]nonane-2,4-dione] | 100 | 0 | 100 | 100 | 100 | 90 | 40 | 100 | 90 | 100 | 90 | 60 | 100 | 100 | 70 | 100 | 70 | 100 | 90 | 100 | pest or weed control at 250 g/ha (Avena fatua (AVEFA) [23]): 50%; pest or weed control at 250 g/ha [24]: 100% |
| CCc1cc(-c2ccc(Cl)cc2)ccc1C1=C(O)[C@H]2CC[C@H](C2)C1=O [Compound T59, 3-(4′-chloro-3-ethylbiphen-4-yl)bicyclo[3.2.1]octane-2,4-dione] | 100 | 30 | 100 | 90 | 100 | 70 | 0 | 100 | 70 | 100 | 90 | 80 | 100 | 100 | 30 | 100 | 80 | 80 | 100 | 90 | pest or weed control at 250 g/ha (Avena fatua (AVEFA) [23]): 70%; pest or weed control at 250 g/ha [24]: 100% |
| Cc1cc(-c2ccc(Cl)cc2)ccc1C1=C(O)[C@H]2CC[C@H](C2)C1=O [Compound T61, 3-(4′-chloro-3-methylbiphen-4-yl)bicyclo[3.2.1]octane-2,4-dione] | 100 | 20 | 100 | 60 | 100 | 40 | 0 | 90 | 30 | 80 | 60 | 30 | 90 | 100 | 30 | 80 | 100 | 90 | 100 | 100 | pest or weed control at 250 g/ha (Avena fatua (AVEFA) [23]): 40%; pest or weed control at 250 g/ha [24]: 90% |
| CCc1cc(-c2ccc(Cl)cc2)cc(CC)c1C1=C(O)[C@H]2CC[C@H](C2)C1=O [Compound T62, 3-(4′-chloro-3,5-diethylbiphen-4-yl)bicyclo[3.2.1]octane-2,4-dione] | 100 | 0 | 100 | 90 | 100 | 80 | 20 | 100 | 80 | 100 | 60 | 50 | 100 | 100 | 60 | 100 | 100 | 100 | 100 | 100 | pest or weed control at 250 g/ha (Avena fatua (AVEFA) [23]): 50%; pest or weed control at 250 g/ha [24]: 100% |
| CCc1cc(-c2ccc(C)cc2)cc(CC)c1C1=C(O)[C@H]2CC[C@H](C2)C1=O [Compound T63] | 70 | 0 | 100 | 50 | 100 | 50 | 0 | 100 | 30 | 90 | 0 | 10 | 50 | 60 | 20 | 50 | 80 | 100 | 70 | 90 | pest or weed control at 250 g/ha (Avena fatua (AVEFA) [23]): 20%; pest or weed control at 250 g/ha [24]: 60% |

— patent publication US8828908B2, “Herbicidally active bicyclic 1,3-dione compounds” (Syngenta Limited, priority 2007, dated 2014)
